Results as given in patent US20190328822A1, “METHODS AND COMPOSITIONS FOR PREVENTING OR TREATING DOMINANT OPTIC ATROPHY” (STEALTH BIOTHERAPEUTICS CORP, priority 2014, published 2019).
Non-standard residues stand in square brackets, D forms with d. No end group written: not given here.

Key:
mu-opioid receptor = mu-opioid receptor (Homo sapiens, UniProt P35372); experiment: mu-opioid receptor agonist activity
reactive oxygen species = details: cited from earlier work
[1] = cited from earlier work
LHON patients [2] = details: cited from earlier work
LHON patients [3] = details: 85 LHON patients, 900 mg/d for 24 weeks; cited from earlier work
[4] = system: Human subjects at risk of having, suspected of having, or diagnosed as having DOA; experiment: Treatment and prevention of DOA in human subjects, ophthalmic solution (Example 2); assay type: in vivo; details: 1 drop of 1%, 3%, or 5% ophthalmic solution three times per day for 18 months
Description: Human subjects at risk of having (e.g., diagnosed with an OPA1 gene mutation, but who are not yet symptomatic, e.g., no visual impairment), suspected of having, or diagnosed as having DOA are administered a therapeutically effective amount of an aromatic-cationic peptide of the present technology, such as D-Arg-2′,6′-Dmt-Lys-Phe-NH2, alone or in conjunction with one or more additional therapeutic agents. Subjects will receive 1 drop of 1%, 3%, or 5% D-Arg-2′,6′-Dmt-Lys-Phe-NH2 ophthalmic solution in a randomly selected study eye three times per day for 18 months. The remaining eye of these subjects serves as the untreated internal control. The patients in the control group will be administered 1 drop of vehicle solution in one of their eyes (fellow control eye) three times per day over the course of the 18 month study. Subjects are assessed weekly for signs and symptoms associated with DOA according to one or more criteria described herein (e.g., one or more of visual loss, optic nerve atrophy, palor of the neuroretianl rim, presence of temporal pigmentary grey cresent, thinning of the fiber layer at the optic nerve rim, papillary excavation, scotoma, changes in color vision, etc.).

[5] = system: plasma membrane of several mammalian cell types; details: energy-independent manner; cited from earlier work

Sequence of mu-opioid receptor (P35372 whole entry, species assumed): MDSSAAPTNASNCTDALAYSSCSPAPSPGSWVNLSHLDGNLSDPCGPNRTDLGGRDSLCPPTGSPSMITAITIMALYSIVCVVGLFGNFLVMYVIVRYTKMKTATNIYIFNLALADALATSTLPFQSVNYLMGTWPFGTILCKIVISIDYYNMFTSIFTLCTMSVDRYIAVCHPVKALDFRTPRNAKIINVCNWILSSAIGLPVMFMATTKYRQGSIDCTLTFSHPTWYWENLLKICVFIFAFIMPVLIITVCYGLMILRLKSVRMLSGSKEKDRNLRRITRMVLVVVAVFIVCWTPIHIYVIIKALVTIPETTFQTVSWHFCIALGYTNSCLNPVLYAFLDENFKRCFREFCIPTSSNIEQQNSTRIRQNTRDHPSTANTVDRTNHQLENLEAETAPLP

Tyr-D-Arg-Phe-Lys-NH2
mu-opioid receptor agonist activity (mu-opioid receptor): has mu-opioid receptor agonist activity

Cc1c(C)c2c(c(C)c1O)CCC(C)(C(=O)O)O2 (centres unmarked) [Trolox]
protective effects in vitro (reactive oxygen species): modest protective effects

N[C@@H](CCC(=O)N[C@@H](CS)C(=O)NCC(=O)O)C(=O)O [glutathione]
protective effects in vitro (reactive oxygen species): modest protective effects

COC1=C(OC)C(=O)C(C/C=C(\C)CC/C=C(\C)CC/C=C(\C)CC/C=C(\C)CC/C=C(\C)CC/C=C(\C)CC/C=C(\C)CC/C=C(\C)CC/C=C(\C)CCC=C(C)C)=C(C)C1=O [coenzyme Q-10]
protective effects in vitro (reactive oxygen species): modest protective effects
delivery crossing lipid membranes to mitochondria ([1]; exogenous): poor delivery

COC1=C(OC)C(=O)C(CCCCCCCCCCO)=C(C)C1=O [idebenone]
diameter of the central scotomas after treatment (LHON patients [2]; one 11778/ND4 LHON patient, from about 20 degrees): less than 5 degrees
recovery of visual acuity, color vision, and visual fields (LHON patients [2]; seven LHON patients, about 450 mg/d): showed recovery of visual acuity, color vision, and visual fields
final visual acuity vs placebo group (LHON patients [3]): better final visual acuity than the placebo group
delivery to mitochondria ([1]; compared with coenzyme Q10): higher delivery to mitochondria
efficiency in crossing the blood-brain barrier ([1]; compared with coenzyme Q10): higher efficiency in crossing the blood-brain barrier

D-Arg-2′,6′-dimethyltyrosine-Lys-Phe-NH2 [D-Arg-2′,6′-Dmt-Lys-Phe-NH2]
onset and severity of the symptoms of DOA [4]: prevent the onset of, delay the onset of, and/or reduce the severity of the symptoms of DOA
mu-opioid receptor agonist activity (mu-opioid receptor): does not have mu-opioid receptor agonist activity

F[dR]FK-NH2
mu-opioid receptor agonist activity (mu-opioid receptor): does not have mu-opioid receptor agonist activity

2′,6′-Dmt-D-Arg-Phe-Lys-NH2
penetration of the plasma membrane [5]: readily penetrates
